Test results reported in article PMC4460250, “Systems Pharmacology Dissecting Holistic Medicine for Treatment of Complex Diseases: An Example Using Cardiocerebrovascular Diseases Treated by TCM” (Evidence-based Complementary and Alternative Medicine : eCAM, 2015).

Experiments:
[1] = in vivo
[2] = in vivo; cited from earlier work

SMILES	Class(High: HIA value ≥0.7; Low: HIA value < 0.7) [1]	HIA(Human Intestinal Absorption) [2]
CN1C(=O)[C@@H](O)N=C(c2ccccc2Cl)c2cc(Cl)ccc21 [Lormetazepam(R)]	High (key: High: HIA value ≥0.7; Low: HIA value < 0.7)	1
C[C@@H](CN(C)C)CN1c2ccccc2CCc2ccccc21 [Trimipramine(S)]	High (key: High: HIA value ≥0.7; Low: HIA value < 0.7)	0.8
CC(C)NC[C@@H](O)COc1cccc2[nH]ccc12 [Pindolol(R)]	High (key: High: HIA value ≥0.7; Low: HIA value < 0.7)	0.9
C[C@H](O)Cn1cnc2c1c(=O)n(C)c(=O)n2C [Proxyphylline(S)]	High (key: High: HIA value ≥0.7; Low: HIA value < 0.7)	1
CCCNC(=O)NS(=O)(=O)c1ccc(Cl)cc1 [Chorpropamide]	High (key: High: HIA value ≥0.7; Low: HIA value < 0.7)	0.95
CC[C@@H](C(=O)O)c1ccc(N2Cc3ccccc3C2=O)cc1 [Indobufen(R)]	High (key: High: HIA value ≥0.7; Low: HIA value < 0.7)	1
CC[C@H](C)[C@H]1O[C@]2(CC[C@@H]1C)C[C@@H]1C[C@@H](C/C=C(\C)[C@@H](O[C@H]3C[C@H](OC)[C@@H](O[C@H]4C[C@H](OC)[C@@H](O)[C@H](C)O4)[C@H](C)O3)[C@@H](C)/C=C/C=C3\CO[C@@H]4[C@H](O)C(C)=C[C@@H](C(=O)O1)[C@]34O)O2 [Ivermectin]	Low (key: High: HIA value ≥0.7; Low: HIA value < 0.7)	0.6
CN(C)CCC[C@]1(c2ccc(F)cc2)OCc2cc(C#N)ccc21 [Citalopram(R)]	High (key: High: HIA value ≥0.7; Low: HIA value < 0.7)	1
CCN1CCC[C@@H]1CNC(=O)c1cc(S(=O)(=O)CC)ccc1OC [Sultopride(R)]	High (key: High: HIA value ≥0.7; Low: HIA value < 0.7)	0.89
CC(C)(C)NC[C@H](O)COc1nsnc1N1CCOCC1 [Timolol(S)]	High (key: High: HIA value ≥0.7; Low: HIA value < 0.7)	0.95
CCCCC1C(=O)N(c2ccccc2)N(c2ccccc2)C1=O [Phenylbutazone]	High (key: High: HIA value ≥0.7; Low: HIA value < 0.7)	0.98
Cc1nccn1C[C@H]1CCc2c(c3ccccc3n2C)C1=O [Ondansetron(R)]	High (key: High: HIA value ≥0.7; Low: HIA value < 0.7)	1
COc1cccc(C2(O)CCCCC2CN(C)C)c1 (stereo not shown) [Tramadol]	High (key: High: HIA value ≥0.7; Low: HIA value < 0.7)	0.9
Cc1cccc(C)c1OC[C@@H](C)N [Mexiletine(R)]	High (key: High: HIA value ≥0.7; Low: HIA value < 0.7)	0.98
O=C1CN=C(c2ccccn2)c2cc(Br)ccc2N1 [Bromazepam]	High (key: High: HIA value ≥0.7; Low: HIA value < 0.7)	0.84
CN1C(=O)CC[C@H]1c1cccnc1 [Cotinine(S)]	High (key: High: HIA value ≥0.7; Low: HIA value < 0.7)	0.97
CC(C)(C)NC[C@H](O)c1ccc(O)c(CO)n1 [Pirbuterol(S)]	Low (key: High: HIA value ≥0.7; Low: HIA value < 0.7)	0.6
Cn1c(=O)c2c(ncn2CCCNC[C@H](O)c2cc(O)cc(O)c2)n(C)c1=O [Reproterol(R)]	Low (key: High: HIA value ≥0.7; Low: HIA value < 0.7)	0.6

SMILES	Class(High: HIA value ≥0.7; Low: HIA value < 0.7) [1]	HIA(Human Intestinal Absorption) [2]
C[C@H](C(=O)O)c1ccc(-c2ccccc2)c(F)c1 [Flurbiprofen(S)]	High (key: High: HIA value ≥0.7; Low: HIA value < 0.7)	0.95
CC(C)C[C@H](N(C)C)C1(c2ccc(Cl)cc2)CCC1 [Sibutramine(S)]	High (key: High: HIA value ≥0.7; Low: HIA value < 0.7)	0.77
Cc1ncsc1CCCl [Clomethiazole]	High (key: High: HIA value ≥0.7; Low: HIA value < 0.7)	0.95
CCN(C)C(=O)Oc1cccc([C@H](C)N(C)C)c1 [Rivastigmine]	High (key: High: HIA value ≥0.7; Low: HIA value < 0.7)	0.98
NCC1(CC(=O)O)CCCCC1 [Gabapentin]	Low (key: High: HIA value ≥0.7; Low: HIA value < 0.7)	0.59
COc1c(N2CCN[C@H](C)C2)c(F)cc2c(=O)c(C(=O)O)cn(C3CC3)c12 [Gatifloxacin(R)]	High (key: High: HIA value ≥0.7; Low: HIA value < 0.7)	0.96
COc1ccccc1OCCNC[C@H](O)c1ccc(C)c(S(N)(=O)=O)c1 [Amosulalol(R)]	High (key: High: HIA value ≥0.7; Low: HIA value < 0.7)	1
CCO [Ethyl_alcohol]	High (key: High: HIA value ≥0.7; Low: HIA value < 0.7)	1
Cc1nnc2n1-c1ccc(Cl)cc1C(c1ccccc1)=NC2 [Alprazolam]	High (key: High: HIA value ≥0.7; Low: HIA value < 0.7)	0.9
COc1cc2nc(N3CCN(C(=O)[C@H]4COc5ccccc5O4)CC3)nc(N)c2cc1OC [Doxazosin(R)]	High (key: High: HIA value ≥0.7; Low: HIA value < 0.7)	1
CC(C)=CCN1CCC2(C)c3cc(O)ccc3CC1C2C (stereo not shown) [Pentazocine]	High (key: High: HIA value ≥0.7; Low: HIA value < 0.7)	0.95
C=CCOc1ccccc1OC[C@H](O)CNC(C)C [Oxprenolol(R)]	High (key: High: HIA value ≥0.7; Low: HIA value < 0.7)	0.95
O[C@](CCN1CCCCC1)(c1ccccc1)C1CCCCC1 [Trihexyphenidyl(S)]	High (key: High: HIA value ≥0.7; Low: HIA value < 0.7)	1
CC(C)NC[C@@H](O)c1cc(O)cc(O)c1 [Metaproterenol(S)]	Low (key: High: HIA value ≥0.7; Low: HIA value < 0.7)	0.43
CCn1cc(C(=O)O)c(=O)c2cc(F)c(N3CCN[C@@H](C)C3)c(F)c21 [Lomefloxacin(S)]	High (key: High: HIA value ≥0.7; Low: HIA value < 0.7)	0.99
C[C@]12CC[C@@H]3c4ccc(OC(=O)N(CCCl)CCCl)cc4CC[C@H]3[C@@H]1CC[C@@H]2O [Estramustine]	High (key: High: HIA value ≥0.7; Low: HIA value < 0.7)	0.75
CN1CCC[C@H]1c1cccnc1 [Nicotine(S)]	High (key: High: HIA value ≥0.7; Low: HIA value < 0.7)	1
